Experimental data taken from ChEMBL document CHEMBL3044628, “Okaramine C, a New Insecticidal Indole Alkaloid from Penicillium simplicissimum” (1991).

Test system: Bombyx mori
Test: Insecticidal activity against po dosed larvae of Bombyx mori assessed per gram of diet
Format: functional

Question: Which LD50 does the source give for `C=CC(C)(C)c1[nH]c2ccccc2c1CC1NC(=O)[C@H]2C[C@@]3(O)c4ccccc4N(C(C)(C)C=C)[C@H]3N2C1=O` (stereo partly drawn) [OKARAMINE C] here?
Answer: 7 mg/kg

Question: How did the LD50 turn out when `CO[C@@H]1[C@]2(O)C(=O)N3/C=C\C(C)(C)c4[nH]c5ccccc5c4/C=C\3C(=O)N2[C@]23[C@H](C)C(C)(C)N2c2ccccc2[C@]13O` [OKARAMINE B] was run?
Answer: 0.2 mg/kg

Question: For `C=CC(C)(C)N1c2ccccc2[C@]2(O)C[C@@H]3C(=O)N4/C=C\C(C)(C)c5[nH]c6ccccc6c5/C=C\4C(=O)N3[C@H]12` [OKARAMINE A], which LD50 is on record?
Answer: 8 mg/kg
